Format in all cases: cell-based
Assay [1] has as its system herpes simplex virus 2 (HSV-2; strain MS). Nature of the assay: Plaque Reduction Test for Herpes Simplex Virus 2 (in MRC-5 cells). To be noted: Human alphaherpesvirus 2, MRC5; MS strain in MRC-5 cells; read-out: IC50 Herpes Simplex virus Type 2. As for the experimental part: (§1) 1. Plaque Reduction Test for Herpes Simplex Viruses 1 and 2.
(§2) Cells (Vero or MRC-5) were grown to confluence in 24 well multi-dishes (well diameter=1.5 cm). The drained cell monolayers were each infected with approximately 50 infectious particles of herpes simplex virus 1 (HSV-1; strain HFEM) or herpes simplex virus 2 (HSV-2; strain MS) in 100 μl of phosphate-buffered saline. The virus was adsorbed for 1 hour at room temperature. After adsorption, residual inoculum was removed from each well and replaced with 0.5 ml of Eagle's MEM containing 5% newborn calf serum and 0.9% agarose (A37). Once the agarose had set, dilutions of the test compound, which had been prepared in Eagle's MEM (containing 5% newborn calf serum), were added, each well receiving 0.5 ml of liquid overlay. The test compound was diluted to give the following series of concentrations: 200, 60, 20, 6 . . . 0.06 μg/ml; final concentrations in the assay ranged, therefore, between 100 μg/ml and 0.03 μg/ml. The infected cultures were incubated at 37° C. in a humidified atmosphere of 5% CO2 until plaques were clearly visible (2 or 3 days for Vero cells, usually 1 day for MRC-5 cells).
(§3) Cultures from 1 and 2 were fixed in formal saline, the agarose overlays were carefully washed off, and then the cell monolayers were stained with carbol fuchsin. A stereo microscope was used to count plaques. The IC50 (concentration of drug which inhibits the number of plaques formed by 50% relative to the number of plaques observed in virus control monolayers) of the test compound was calculated. In addition, the monolayers were examined for evidence of drug-induced cytotoxicity; the minimum concentration at which cytotoxicity occurs was recorded.

Assay [2] deals with visna virus (strain K184). In words: CPE Inhibition Test (Established Monolayer) for Lentiviruses (in SCP cells). To be noted: Visna-maedi virus, read-out: MIC Visna Virus (minimum concentration giving complete protection of the cell monolayers). As to the method: 3. CPE Inhibition Test (Established Monolayer) for Lentiviruses
3×10^4 sheep choroid plexus (SCP) cells were plated into individual wells of a 96 well microtitre plate in 100 μl of Eagle's MEM with Hanks' salts containing 10% heat inactivated foetal calf serum (FCS). When monolayers had become established (after 1 or 2 days growth) they were washed with 200 μl of maintenance medium (Eagle's MEM with Hanks' salts containing 0.5% FCS) and infected with 100 μl of visna virus (strain K184) in maintenance medium (30 TCID50 /ml). Test samples were diluted with maintenance medium in further 96 well microtitre plates over the range 200-0.06 μg/ml by 3-fold dilution steps. 100 μl of the diluted samples was then transferred directly onto virus-infected monolayers (final concentration range therefore […]) and incubated at in a humidified atmosphere containing 5% CO2 until virus-induced CPE was maximal in the untreated virus-infected controls (usually 12-14 days). The plates were fixed with formal saline and stained with crystal violet. Virus-induced CPE was then scored microscopically and the minimum concentration of sample giving complete protection of the cell monolayers (MIC) determined.

Assay [3] relates to herpes simplex virus 1 (HSV-1; strain HFEM). Nature of the assay: Plaque Reduction Test for Herpes Simplex Virus 1 (in Vero cells). As to conditions: Human alphaherpesvirus 1, read-out: IC50 Herpes Simplex virus Type 1. As to the method: as §1, §2, §3
On the technique in general: Plaques are areas of infected cells; plaque reduction assays count them against a control.

Assay [4] relates to varicella zoster virus (VZV; Ellen strain). Nature of the assay: Plaque Reduction Test for Varicella Zoster-Virus (in MRC-5 cells). To be noted: Human alphaherpesvirus 3, MRC5; Ellen strain in MRC-5 cells. As to the method:
2. Plaque Reduction Test for Varicella Zoster-Virus
as §2, with “MRC-5 cells” for “Cells (Vero or MRC-5)”, “varicella zoster” for “herpes simplex”, “(VZV; Ellen strain)” for “1 (HSV-1; strain HFEM) or herpes simplex virus 2 (HSV-2; strain MS)”, “heat-inactivated foetal” for “newborn”, “(5” for “(2”, “6 days).” for “3 days for Vero cells, usually 1 day for MRC-5 cells).”
as §3

Values after ≈ are worked out from the molar mass of the structure shown.

On to `Nc1nc2c(ncn2OCCCP(=O)(O)O)c(=O)[nH]1` [Example 1, 9-(3-Phosphonopropoxy)guanine], for which the IC50 was over 100 µg/mL in assay [1], over 100 µg/mL in assay [3] and 73 µg/mL (≈ 252 µM) in assay [4]. In addition, in assay [2], the MIC is 3 µg/mL (≈ 10.4 µM).
In the case of `Nc1nc2c(ncn2OCCCCP(=O)(O)O)c(=O)[nH]1` [Example 3, 9-(4-Phosphonobutoxy)guanine], the IC50 in assay [1] worked out at 23 µg/mL (≈ 75.9 µM); in assay [3] it was 62 µg/mL (≈ 204 µM); in assay [4], 6 µg/mL (≈ 19.8 µM). For the same compound, the MIC in assay [2] was determined as 1 µg/mL (≈ 3.3 µM).
For `Nc1nc(N)c2ncn(OCCCCP(=O)(O)O)c2n1` [Example 5, 2,6-Diamino-9-(4-phosphonobutoxy)purine], in that order: over 100 µg/mL, over 100 µg/mL, 17 µg/mL (≈ 56.2 µM) and 10 µg/mL (≈ 33.1 µM).
For `Nc1ncnc2c1ncn2OCCCCP(=O)(O)O` [Example 7, 9-(4-Phosphonobutoxy)adenine], the IC50 in assay [1], in assay [3] and in assay [4] was over 100 µg/mL each time. Moreover, the MIC in assay [2] is 100 µg/mL (≈ 348 µM).
Consider `Nc1ncnc2c1ncn2OC(CO)CCP(=O)(O)O` (stereo not shown) [Example 11], for which the IC50 in assay [1], in assay [3] and in assay [4] was over 100 µg/mL each time. In assay [2], the MIC came out at 30 µg/mL (≈ 98.9 µM).
For `Nc1nc2c(ncn2OCC(O)CCP(=O)(O)O)c(=O)[nH]1` (stereo not shown) [Example 13, 9-(2-Hydroxy-4-phosphonobutoxy)guanine], the IC50 in assay [1] is over 100 µg/mL; in assay [3], over 100 µg/mL; in assay [4], 29 µg/mL (≈ 90.8 µM). In addition, in assay [2], the MIC worked out at 10 µg/mL (≈ 31.3 µM).
Take `Nc1ncnc2c1ncn2OCC(O)CCP(=O)(O)O` (stereo not shown) [Example 15, 9-(2-Hydroxy-4-phosphonobutoxy)adenine]: the IC50 in assay [1], in assay [3] and in assay [4] was over 100 µg/mL throughout. The MIC in assay [2] is 100 µg/mL (≈ 330 µM).
Consider `Nc1nc2c(ncn2OC(CO)CCP(=O)(O)O)c(=O)[nH]1` (stereo not shown) [Example 16, 9-[1-(Hydroxymethyl)-3-phosphonopropoxy]guanine], for which the concentration for half-maximal inhibition (IC50) in assay [1], in assay [3] and in assay [4] was over 100 µg/mL in each case. The MIC in assay [2] was 100 µg/mL (≈ 313 µM).
Turning to `Nc1nc2c(ncn2OCC(CO)CCP(=O)(O)O)c(=O)[nH]1` (stereo not shown) [Example 18, 9-[2-(Hydroxymethyl)-4-phosphonobutoxy]guanine], the IC50 was over 100 µg/mL in assay [1], over 100 µg/mL in assay [3] and 5 µg/mL (≈ 15 µM) in assay [4]. Also, the MIC in assay [2] was 1 µg/mL (≈ 3 µM).
As for `Nc1nc(N)c2ncn(OCC(CO)CCP(=O)(O)O)c2n1` (stereo not shown) [Example 20], the values for the IC50 in assay [1], in assay [3] and in assay [4] were over 100 µg/mL, over 100 µg/mL and 17 µg/mL (≈ 51.2 µM), respectively. For the same compound, in assay [2], the MIC worked out at 10 µg/mL (≈ 30.1 µM).

What is called IC50 is the concentration at which inhibition is half-maximal.
